“And” between values parts separate entries of the source, which are not always exact repeats. Equal values may be shown once.
Tested on: Donor 3 GMA T-Cell Lines
Test: ATP proliferation assay (CellTiter Glo), Donor 3 GMA T-cell lines, incl. reactivity to non-canonical GA peptides
Type: cell-based, human
Details: for proliferation response to non-canonical GA peptides: 0, 1, 3, 10, 30 μg/mL; for Non-Canonical Peptide Non-Reactivity: proliferation <2 times no antigen control; for Non-Canonical Peptide Reactivity: at least one proliferation value >=2 times no antigen control

poly (Glu-Lys-Tyr; 6:3:1) [GLT 631]
proliferation response to non-canonical GA peptides (165-B5G and 165-E7G, Day 81): responded well
Non-Canonical Peptide Non-Reactivity (165-B5G): GLT 631
Non-Canonical Peptide Non-Reactivity (165-C5G): GLT 631
Non-Canonical Peptide Reactivity (165-E7G): GLT 631
Non-Canonical Peptide Non-Reactivity (165-E9G): GLT 631
Non-Canonical Peptide Non-Reactivity (165-F5G): GLT 631
Non-Canonical Peptide Non-Reactivity (165-F10G): GLT 631
proliferation response to non-canonical GA peptides (165-H11G, Day 50): responded
Non-Canonical Peptide Reactivity (165-H11G): GLT 631
Reactive T-Cell Line (Donor 3 GMA lines, at least a 50% increase in proliferation relative to a control after stimulation with the non-canonical GA peptide): 165-H11G (Donor 3)
Nonreactive T-Cell Line (Donor 3 GMA lines, stimulation with the non-canonical GA peptide): 165-B5G (Donor 3) and 165-C5G (Donor 3) and 165-C8G (Donor 3) and 165-E7G (Donor 3) and 165-E9G (Donor 3) and 165-F5G (Donor 3) and 165-F10G (Donor 3)
Proliferation (luminescent ATP assay), Mean (T-cell line 165-05G, 1 μg/mL antigen, Day 50 of culturing, No Antigen Value 2149): 1871 RLU
Proliferation (luminescent ATP assay), Mean (T-cell line 165-05G, 3 μg/mL antigen, Day 50 of culturing, No Antigen Value 2149): 2268 RLU
Proliferation (luminescent ATP assay), Mean (T-cell line 165-05G, 10 μg/mL antigen, Day 50 of culturing, No Antigen Value 2149): 2256 RLU
Proliferation (luminescent ATP assay), Mean (T-cell line 165-05G, 30 μg/mL antigen, Day 50 of culturing, No Antigen Value 2149): 2137 RLU
Proliferation (luminescent ATP assay), Mean (T-cell line 165-B5G, 1 μg/mL antigen, Day 81 of culturing, No Antigen Value 2432): 4288 RLU
Proliferation (luminescent ATP assay), Mean (T-cell line 165-B5G, 1.25 μg/mL antigen, Day 55 of culturing, No Antigen Value 846): 1054 RLU
Proliferation (luminescent ATP assay), Mean (T-cell line 165-B5G, 2.5 μg/mL antigen, Day 55 of culturing, No Antigen Value 846): 1159 RLU
Proliferation (luminescent ATP assay), Mean (T-cell line 165-B5G, 3 μg/mL antigen, Day 81 of culturing, No Antigen Value 2432): 5153 RLU
Proliferation (luminescent ATP assay), Mean (T-cell line 165-B5G, 5 μg/mL antigen, Day 55 of culturing, No Antigen Value 846): 1687 RLU
Proliferation (luminescent ATP assay), Mean (T-cell line 165-B5G, 10 μg/mL antigen, Day 55 of culturing, No Antigen Value 846): 3589 RLU
Proliferation (luminescent ATP assay), Mean (T-cell line 165-B5G, 10 μg/mL antigen, Day 81 of culturing, No Antigen Value 2432): 11847 RLU
Proliferation (luminescent ATP assay), Mean (T-cell line 165-B5G, 30 μg/mL antigen, Day 81 of culturing, No Antigen Value 2432): 11416 RLU
Proliferation (luminescent ATP assay), Mean (T-cell line 165-C5G, 1.25 μg/mL antigen, autologous B-LCL): 485 RLU
Proliferation (luminescent ATP assay), Mean (T-cell line 165-C5G, 2.5 μg/mL antigen, autologous B-LCL): 552 RLU
Proliferation (luminescent ATP assay), Mean (T-cell line 165-C5G, 5 μg/mL antigen, autologous B-LCL): 585 RLU
Proliferation (luminescent ATP assay), Mean (T-cell line 165-C5G, 10 μg/mL antigen, autologous B-LCL): 579 RLU
Proliferation (luminescent ATP assay), Mean (T-cell line 165-E7G, 1 μg/mL antigen, Day 81 of culturing, No Antigen Value 2145): 3992 RLU
Proliferation (luminescent ATP assay), Mean (T-cell line 165-E7G, 1.25 μg/mL antigen, autologous B-LCL, Day 55): 2983 RLU
Proliferation (luminescent ATP assay), Mean (T-cell line 165-E7G, 2.5 μg/mL antigen, autologous B-LCL, Day 55): 3783 RLU
Proliferation (luminescent ATP assay), Mean (T-cell line 165-E7G, 3 μg/mL antigen, Day 81 of culturing, No Antigen Value 2145): 5133 RLU
Proliferation (luminescent ATP assay), Mean (T-cell line 165-E7G, 5 μg/mL antigen, autologous B-LCL, Day 55): 5821 RLU
Proliferation (luminescent ATP assay), Mean (T-cell line 165-E7G, 10 μg/mL antigen, Day 81 of culturing, No Antigen Value 2145): 12006 RLU
Proliferation (luminescent ATP assay), Mean (T-cell line 165-E7G, 10 μg/mL antigen, autologous B-LCL, Day 55): 5710 RLU
Proliferation (luminescent ATP assay), Mean (T-cell line 165-E7G, 30 μg/mL antigen, Day 81 of culturing, No Antigen Value 2145): 12836 RLU
Proliferation (luminescent ATP assay), Mean (T-cell line 165-E9G, 1 μg/mL antigen, Day 50 of culturing, No Antigen Value 1742): 1630 RLU
Proliferation (luminescent ATP assay), Mean (T-cell line 165-E9G, 1.25 μg/mL antigen, autologous B-LCL): 142 RLU
Proliferation (luminescent ATP assay), Mean (T-cell line 165-E9G, 2.5 μg/mL antigen, autologous B-LCL): 195 RLU
Proliferation (luminescent ATP assay), Mean (T-cell line 165-E9G, 3 μg/mL antigen, Day 50 of culturing, No Antigen Value 1742): 1600 RLU
Proliferation (luminescent ATP assay), Mean (T-cell line 165-E9G, 5 μg/mL antigen, autologous B-LCL): 233 RLU
Proliferation (luminescent ATP assay), Mean (T-cell line 165-E9G, 10 μg/mL antigen, autologous B-LCL): 312 RLU
Proliferation (luminescent ATP assay), Mean (T-cell line 165-E9G, 30 μg/mL antigen, Day 50 of culturing, No Antigen Value 1742): 2152 RLU
Proliferation (luminescent ATP assay), Mean (T-cell line 165-E9G, 10 μpg/mL antigen, Day 50 of culturing, No Antigen Value 1742): 2341 RLU
Proliferation (luminescent ATP assay), Mean (T-cell line 165-F5G, 1.25 μg/mL antigen, autologous B-LCL): 131 RLU
Proliferation (luminescent ATP assay), Mean (T-cell line 165-F5G, 2.5 μg/mL antigen, autologous B-LCL): 143 RLU
Proliferation (luminescent ATP assay), Mean (T-cell line 165-F5G, 5 μg/mL antigen, autologous B-LCL): 176 RLU
Proliferation (luminescent ATP assay), Mean (T-cell line 165-F5G, 10 μg/mL antigen, autologous B-LCL): 110 RLU
Proliferation (luminescent ATP assay), Mean (T-cell line 165-F10G, 1 μg/mL antigen, Day 50 of culturing, No Antigen Value 3752): 3363 RLU
Proliferation (luminescent ATP assay), Mean (T-cell line 165-F10G, 1.25 μg/mL antigen, autologous B-LCL): 1012 RLU
Proliferation (luminescent ATP assay), Mean (T-cell line 165-F10G, 2.5 μg/mL antigen, autologous B-LCL): 1389 RLU
Proliferation (luminescent ATP assay), Mean (T-cell line 165-F10G, 3 μg/mL antigen, Day 50 of culturing, No Antigen Value 3752): 3061 RLU
Proliferation (luminescent ATP assay), Mean (T-cell line 165-F10G, 5 μg/mL antigen, autologous B-LCL): 2620 RLU
Proliferation (luminescent ATP assay), Mean (T-cell line 165-F10G, 10 μg/mL antigen, Day 50 of culturing, No Antigen Value 3752): 4823 RLU
Proliferation (luminescent ATP assay), Mean (T-cell line 165-F10G, 10 μg/mL antigen, autologous B-LCL): 2505 RLU
Proliferation (luminescent ATP assay), Mean (T-cell line 165-F10G, 30 μg/mL antigen, Day 50 of culturing, No Antigen Value 3752): 4568 RLU

Source: patent US9995734B2, “Human T cell line assay for evaluating the immunologic identity of glatiramer acetate preparations” (Mylan Inc., priority 2013, dated 2018)
